Test system: lipoprotein lipase (LPL) and hepatic lipase (HL)
Assay: Heparin-releasable TAG hydrolase activity in post-heparin plasma
Type: biochemical
Conditions: NG-497 100 µM, radiolabeled triolein
Method: Fig. S3: Investigation of off-target effects of NG-497 on structurally and functionally related lipid hydrolases. (a) PNPLA1-dependent formation of acylceramides was monitored in a cell-based assay in HEK293T cells. Experiments were performed in the presence or absence of NG-497 (40 µM) and the non-selective lipase inhibitor Orlistat (40 µM). Orlistat, but not NG-497, inhibited PNPLA1/CGI-58-dependent ω-O-acylceramide formation. (b-h) Enzymes were overexpressed in Expi293 cells and cell lysates were used as source of enzymatic activity. […] Experiments were performed in the presence or absence of NG-497 (100 µM) and the formation of reaction products was monitored. […]
Data were calculated relative to the basal activity detected in LacZ-transfected controls. […]
LPL activity was inhibited using an anti-LPL antibody. All data are presented as mean ± S.D. Statistical significance was determined via ANOVA followed by Bonferroni post hoc test ( ***, p < 0.001). […]
Released free fatty acids were quantified via NEFA C kit (Fujifilm Wako Chemicals, Neuss, Germany) and release of p-nitrophenol was measured at 405 nm. […] Cellular ω-O-acylceramide formation was monitored using [1-14C]linoleic acid as tracer. […] The activity of purified human pancreatic lipase (MilliporeSigma #SRE0028) was determined as previously described7 in the presence or absence of NG-497 (100µM) or Orlistat (20 µM). […]

## CCOc1ccc(-c2cc(OC)cc(C(=O)OC(C)C)n2)cc1 [NG-497]
  inhibition of heparin-releasable TAG hydrolase activity in human serum: did not observe inhibition
